Test results taken from patent publication US20110165115A1, “SYNERGISTIC ATTRACTANTS FOR PESTIFEROUS SOCIAL INSECTS” (STERLING INTERNATIONAL INC., priority 2010, published 2011).

Legend:
[1] = test system: V. pensylvanica; test: Field trapping Experiment 1, Rescue W•H•Y traps; assay type: in vivo, Vespula pensylvanica; conditions: Exp 1; HIPV added to WHY attractant in the top chamber, or WHY alone
Procedure: (§1) Three field trapping experiments were carried out during late July to early August 2009, in residential and woody areas around Spokane, Wash., USA, using the newly marketed Rescue® W•H•Y traps (www.rescue.com). As used herein, the W•H•Y trap is a trap in accordance with the description of United States Patent Application Publication No. 2009/0151228. The W•H•Y trap has a top chamber and a bottom chamber. The top chamber is baited with two attractants—one of which is a solid contained in a vial (2-methyl-1-butanol) and the other a liquid mixed with water (acetic acid), herein referred to as the W•H•Y top attractant. The bottom chamber is baited with a liquid attractant (heptyl butyrate) poured onto a cotton pad, herein referred to as the W•H•Y bottom attractant. Separation of the top and bottom attractants (otherwise antagonistic to each other when released from the same chamber) in two chambers was a design feature of this trap and creates two focal attraction sources from one trap for different species of wasps, hornets, and yellowjackets. Traps were hung 1.5-2.0 m above the ground on either the fence or tree branches ca. 5 m apart within each trap line. For each trapping experiment, six sets of traps were deployed with their initial trap positions within each set being randomized. To minimize positional effects and obtain more replications, wasp collections and trap re-randomization were carried out when ≧10-20 wasps were caught in the best trap. Each replicate lasted several days depending on wasp flight activity. Captured wasps were removed from the traps and kept in the zip-bags before taking back to the laboratory for recording of the species, gender status, and catch.
(§2) Experiment 3 (Aug. 5-13, 2009) was conducted to determine the potential behavioral activity of different doses of (E)-4,8-dimethyl-1,3,7-nonatriene alone. The individual (or different doses) HIPVs were loaded into either polyethylene bags or centrifuge tube type of dispensers, and released from the top of the W•H•Y trap chamber. W•H•Y trap attractants (both top and bottom or top only) alone and water (top chamber only) were included in the test as positive and blank controls, respectively. The dispenser types, loading and release rates of the tested semiochemicals are described in Tables 1, 2 and 3.
(§3) Trap catch data were converted to proportion (P) of total captured wasps within each replicate. Data were then transformed by arcsin√P to meet the assumptions of normality and homogeneity of variances for ANOVA. Means were compared by ANOVA followed by the Ryan-Einot-Gabriel-Welsh (REGW) multiple Q test (SPSS 16.0 for Windows) at α=0.05.

[2] = test system: V. vulgaris; test: Field trapping Experiment 1, Rescue W•H•Y traps; assay type: in vivo, Vespula vulgaris; conditions: Exp 1; HIPV added to WHY attractant in the top chamber, or WHY alone
Procedure: as §1, §2, §3

[3] = test system: D. maculata; test: Field trapping Experiment 1, Rescue W•H•Y traps; assay type: in vivo, Dolichovespula maculata; conditions: Exp 1; HIPV added to WHY attractant in the top chamber, or WHY alone
Procedure: as §1
Experiment 1 (Jul. 22-30, 2009) tested ten synthetic HIPV candidates [(E)-2-hexenal, (Z)-3-hexen-1-ol, (Z)-3-hexenyl acetate, cis-ocimene, linalool, methyl salicylate, geranyl acetate, trans-β-caryophyllene, trans-β-farnesene and (E)-4,8-dimethyl-1,3,7-nonatriene], including several paper wasp EAD-active compounds (see FIG. 2 for details), to determine their potential synergistic effect on the Rescue® W•H•Y trap attractants to paper wasps, yellowjackets, and hornets. Experiment 2 (Aug. 5-13, 2009) tested behavioral responses of the paper wasps and yellowjackets to the Rescue® W•H•Y trap attractants (top attractants only) and its combination with (E)-4,8-dimethyl-1,3,7-nonatriene, one of the EAD-active and behaviorally significant HIPVs, in a dose-response fashion. Experiment 3 (Aug. 5-13, 2009) was conducted to determine the potential behavioral activity of different doses of (E)-4,8-dimethyl-1,3,7-nonatriene alone. The individual (or different doses) HIPVs were loaded into either polyethylene bags or centrifuge tube type of dispensers, and released from the top of the W•H•Y trap chamber. W•H•Y trap attractants (both top and bottom or top only) alone and water (top chamber only) were included in the test as positive and blank controls, respectively. The dispenser types, loading and release rates of the tested semiochemicals are described in Tables 1, 2 and 3.
as §3

[4] = test system: V. atropilosa; test: Field trapping Experiment 2, DMNT dose-response with W•H•Y top attractants; assay type: in vivo, Vespula atropilosa; conditions: Exp 2, DMNT added to WHY top attractant
Procedure: as §1, §2, §3

[5] = test system: V. vulgaris; test: Field trapping Experiment 3, different doses of DMNT alone; assay type: in vivo, Vespula vulgaris
Procedure: as §1, §2, §3

[6] = test system: V. germanica; test: as above; assay type: in vivo, Vespula germanica
Procedure: as §1, §2, §3

[7] = test system: paper wasps and yellowjackets; test: Field trapping bioassays, synergism with AA/2MB (summary); assay type: in vivo; conditions: at the doses tested
Procedure: as §1
Experiment 3 (Aug. 5-13, 2009) was conducted to determine the potential behavioral activity of different doses of (E)-4,8-dimethyl-1,3,7-nonatriene alone. The individual (or different doses) HIPVs were loaded into either polyethylene bags or centrifuge tube type of dispensers, and released from the top of the W•H•Y trap chamber. […]

[8] = test system: P. dominulus workers antennae; test: GC-EAD of synthetic mixture of known HIPVs; set-up: species or system Polistes dominulus; conditions: 100 ng/μl each in hexane
Procedure: Aeration samples of the cherry branches (damaged or undamaged/slightly damaged) were injected (3 μl) splitless into a Varian CP-3800 GC equipped with a polar column (HP-INNOWax; 30 m×0.53 mm×1.0 μm film thickness; Agilent Technologies, Wilmington, Del., USA) and a 1:1 effluent splitter that allowed simultaneous flame ionization detection (FID) and electroantennographic detection (EAD) of the European paper wasp (Polistes dominulus) worker antennae to the separated volatile compounds. Helium was used as the carrier gas, and the injector and detector temperatures were 250° C. and 300° C., respectively. Column temperature was 50° C. for 1 min, rising to 240° C. at 10° C./min, and then held for 10 min. The outlet for the EAD was held in a humidified air stream flowing at 0.5 m/sec over the antennal preparation. EAD recordings were made using silver wire-glass capillary electrodes filled with Beadle-Ephrussi Ringer on freshly cut antennae. The antennal signals were stored and analyzed on a PC equipped with a serial IDAC interface box and the program EAD ver. 2.5 (Syntech, Hilversum, The Netherlands). In addition, GC-EAD responses to a synthetic mixture (100 ng/μl each) containing nine known HIPVs including cis-3-hexen-1-ol, cis-3-hexenyl acetate, trans-β-ocimene, (E)-4,8-dimethyl-1,3,7-nonatriene, linalool, methyl salicylate, geranyl acetate, trans-β-caryophyllene and trans-β-farnesene were tested on the P. dominulus workers. (See FIG. 2.) The same chemicals were also tested on beneficial insect antennae from Chrysopa oculata, Myrmeleon crudelis, Podisus maculiventris, and Hippodarnia convergens. (See FIG. 6.) Antennally active peaks in the aeration samples were identified by GC-MS on an HP 6890 GC series coupled with an HP 5973 Mass Selective Detector using the same type of GC column and conditions as described above. Compounds were identified by comparison of retention times with those of authentic standards and with mass spectra of standards.

[9] = Exp 3, release rate 0.25, hole 0.5 mm, loading 15 μL
[10] = Exp 3, release rate 0.5, hole 1 mm, loading 30 μL
[11] = Exp 3, release rate 1, hole 2 mm, loading 75 μL
[12] = Exp 3, release rate 1.5, hole 3 mm, loading 175 μL
[13] = Exp 3, release rate 2, hole 5.5 mm, loading 325 μL

C=C/C=C(\C)CCC=C(C)C [(E)-4,8-dimethyl-1,3,7-nonatriene]
Total Yellowjacket Catches V. pensylvanica [1]: 463
Total Yellowjacket Catches V. vulgaris [2]: 52
Total Yellowjacket Catches D. maculata [3]: 12
Total Yellowjackets Caught V. atropilosa ([4]; release rate 0.25, hole 0.5 mm, loading 15 μL): 0
Total Yellowjackets Caught V. atropilosa ([4]; release rate 0.5, hole 1 mm, loading 30 μL): 0
Total Yellowjackets Caught V. atropilosa ([4]; release rate 1, hole 2 mm, loading 75 μL): 0
Total Yellowjackets Caught V. atropilosa ([4]; release rate 1.5, hole 3 mm, loading 175 μL): 0
Total Yellowjackets Caught V. atropilosa ([4]; release rate 2, hole 5.5 mm, loading 325 μL): 1
Total Yellowjackets Caught V. vulgaris [5, 9]: 4
Total Yellowjackets Caught V. vulgaris [5, 10]: 6
Total Yellowjackets Caught V. vulgaris [5, 11]: 4
Total Yellowjackets Caught V. vulgaris [5, 12]: 2
Total Yellowjackets Caught V. vulgaris [5, 13]: 5
Total Yellowjackets Caught V. germanica [6, 9]: 0
Total Yellowjackets Caught V. germanica [6, 10]: 0
Total Yellowjackets Caught V. germanica [6, 11]: 0
Total Yellowjackets Caught V. germanica [6, 12]: 0
Total Yellowjackets Caught V. germanica [6, 13]: 0
synergism of attraction to mixture of acetic acid and 2-methyl-1-butanol [7]: synergize
synergism of attraction to mixture of acetic acid and 2-methyl-1-butanol ([7]; listed as (E)-4,8-dimenthyl-1,3,7-nonatriene): significantly synergize
EAD response of worker antennae [8]: responded consistently

COC(=O)c1ccccc1O [Methyl Salicylate, methyl salicylate]
Total Yellowjacket Catches V. pensylvanica [1]: 226
Total Yellowjacket Catches V. vulgaris [2]: 23
Total Yellowjacket Catches D. maculata [3]: 1
EAD response of worker antennae [8]: responded consistently

CC/C=C\CCO [Z-3-Hexanol, (Z)-3-hexen-1-ol]
Total Yellowjacket Catches V. pensylvanica [1]: 288
Total Yellowjacket Catches V. vulgaris [2]: 33
Total Yellowjacket Catches D. maculata [3]: 5
EAD response of worker antennae [8]: responded consistently

CC/C=C\CCOC(C)=O [Z-3-Hexenyl Acetate, (Z)-3-hexenyl acetate]
Total Yellowjacket Catches V. pensylvanica [1]: 311
Total Yellowjacket Catches V. vulgaris [2]: 34
Total Yellowjacket Catches D. maculata [3]: 1
EAD response of worker antennae [8]: responded consistently
